Test results reported in publication PMC12210912, “Pharmacologic properties and inhibitory activity of 6-azasteroids against Mycobacterium leprae in vivo and in vitro” (Microbiology Spectrum, 2025).

Experiments:
[1] = compound plasma concentration in Balb/c mice by LC-MS; format: in vivo; conditions: 50 mg/kg; for plasma level at the end of the experiment with infected mice: Balb/c mice, 6 h after last dose, alone or with rifampicin
Method: Animal experimentation was conducted under approval by the ILSL ethical committee (CEUA ILSL 02/19). Balb/c female mice with 8-week-old were inoculated with 5 × 10^3 live M. leprae bacilli, strain Thai-53, in both hind footpads, as previously described for the Shepard’s model ([25]). Eight groups were tested in the experiment: (i) M. leprae control group (n = 5) inoculated with M. leprae and no additional treatment; (ii) vehicle control group (n = 4) inoculated with M. leprae and treatment with vehicle of the drugs; (iii) regular rifampicin treatment, 10 mg/Kg dose; (iv) sub-inhibitory rifampicin, 1 mg/kg dose (n = 5); (v) compound 2 treatment (n = 4), 50 mg/kg dose; (vi) compound 2 with sub-inhibitory rifampicin (n = 5), 50 mg/kg dose of compound 2 and 1 mg/kg dose of rifampicin; (vii) compound 5 treatment (n = 5), 50 mg/kg dose; and (viii) compound 5 with sub-inhibitory rifampicin (n = 5), 50 mg/kg dose of compound 5 and 1 mg/kg dose of rifampicin. One month after inoculation, mice from the control group were euthanized and the hind footpad was collected to assess the establishment of the infection by bacillary enumeration. At that time point, vehicle or drug treatment was started for the remaining groups. All compounds were administrated by gavage, rifampicin was administered weekly, and the compounds were administered daily (excluding weekends) for 1 month (20 doses). Mice were euthanized 6 h after administration of the last dose, and blood was collected in heparin-coated tubes by cardiac puncture for blood enzyme evaluation and compound 5 measurement by LC/MS in the plasma. The infected hind footpads from each group of mice were excised, homogenized and bacilli enumerated in a 100 µL aliquot as previously described ([26]). […]
Uninfected Balb/c female mice (n = 36), approximately 8 weeks old and 20 g, were divided into three groups. […] Concentrations of compound 5 in plasma were determined by LC/MS.
Compound 5 quantification in the plasma was performed on lipid extracts from plasma samples. […]

M. leprae 3β-HSD = assay: cholestenone production by M. leprae in axenic medium (TLC); format: cell-based; conditions: Mycobacterium leprae, TLC densitometry, σ printed in brackets
M. leprae = M. leprae viability in axenic medium by radiorespirometry; format: cell-based, Mycobacterium leprae
[2] = system: human type 2 5α-reductase; parameters: method as in PMID 8057283; conditions: cited from earlier work
Glucocorticoid Receptor = molecular target: T1, Glucocorticoid Receptor (Homo sapiens, UniProt P04150); assay: glucocorticoid receptor radioligand binding inhibition; conditions: [3H]dexamethasone binding, IM-9 cells cytosol
T1 construct: (i) GR (human) IM-9 cells (cytosol); host or cells: IM-9 cells (cytosol)
T1 sequence (P04150 1-777): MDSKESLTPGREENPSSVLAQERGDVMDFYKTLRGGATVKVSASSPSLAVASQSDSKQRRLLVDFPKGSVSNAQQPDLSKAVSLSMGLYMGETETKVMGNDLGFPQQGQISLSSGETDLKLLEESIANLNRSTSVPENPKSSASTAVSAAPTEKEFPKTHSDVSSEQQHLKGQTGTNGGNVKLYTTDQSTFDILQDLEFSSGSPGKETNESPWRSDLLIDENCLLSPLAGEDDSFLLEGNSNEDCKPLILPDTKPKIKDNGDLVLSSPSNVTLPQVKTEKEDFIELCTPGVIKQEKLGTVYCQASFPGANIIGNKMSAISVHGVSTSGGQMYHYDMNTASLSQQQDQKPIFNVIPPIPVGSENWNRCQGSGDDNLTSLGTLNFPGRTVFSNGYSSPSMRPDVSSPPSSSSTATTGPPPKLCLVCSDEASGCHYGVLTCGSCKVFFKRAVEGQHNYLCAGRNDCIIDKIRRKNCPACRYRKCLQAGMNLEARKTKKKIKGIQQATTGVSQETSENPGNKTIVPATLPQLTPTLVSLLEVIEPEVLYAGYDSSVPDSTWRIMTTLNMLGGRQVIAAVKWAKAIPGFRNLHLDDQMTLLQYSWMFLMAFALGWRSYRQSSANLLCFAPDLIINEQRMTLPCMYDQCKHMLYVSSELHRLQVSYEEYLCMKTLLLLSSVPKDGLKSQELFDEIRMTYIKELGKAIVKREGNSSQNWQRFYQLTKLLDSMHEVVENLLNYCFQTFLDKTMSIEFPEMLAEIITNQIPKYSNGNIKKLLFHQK
Method: Four nuclear receptors: glucocorticoid, androgen, LXRα, and LXRβ were assayed. Inhibition of agonist binding to each of the receptors was carried out following a standard protocol by Eurofins, Inc., USA. Compounds were tested at 10 µM. Compound binding was measured by scintillation counting and was calculated as a % inhibition of the binding of a radioactively labeled ligand specific for each target. Percent inhibition of control specific binding was expressed as
100−[(measured specific binding)/(control specific binding)∗100]
where measured specific binding is the amount of radioactive ligand binding obtained in the presence of test compounds.
(iii) LXRα (human) recombinant protein expressed in E. coli; agonist radioligand 20 nM [^3H] […] (iv) LXRβ (human) recombinant protein expressed in E. coli; agonist radioligand 20 nM [^3H]

Structure (SMILES) | plasma level at the end of the experiment with infected mice [1] | inhibition at 40 µM (M. leprae 3β-HSD; 40 μM) [%] | effect on M. leprae viability (radiorespirometry) (M. leprae; 40 µM) | effect on M. leprae viability (radiorespirometry) (M. leprae; 100 µM) | inhibition of human type 2 5α-reductase [2] | plasma levels over 4 weeks, alone vs in combination with rifampicin ([1]; non-infected Balb/c mice, rifampicin 1 mg/kg, weekly time points) | % inhibition observed, Glucocorticoid Receptor (Glucocorticoid Receptor; 10 µM) | inhibition at 10 µM (Glucocorticoid Receptor; read-out: % inhibition observed, Glucocorticoid Receptor) [%] | inhibition at 100 µM (M. leprae 3β-HSD; 100 μM) [%]
CCCN1CC2C3CCC(C(=O)Nc4cc(C(C)(C)C)ccc4C(C)(C)C)[C@@]3(C)CCC2[C@@]2(C)CCC(=O)C=C12 (some centres unmarked) [Compound 2] | detectable levels | ~38 | did not significantly affect M. leprae viability | drastically reduced M. leprae viability | – | – | – | – | –
C[C@]12CCC3C(CNC4=CC(=O)CC[C@@]43C)C1CCC2C(=O)NC(c1ccc(F)cc1)c1ccc(F)cc1 (some centres unmarked) [Compound 5] | detectable levels | – | – | without significantly affecting bacterial viability | nanomolar inhibitor | no significant differences | moderate | 46.4 | ~25.1
